# Measured values taken from patent US20230382940A1, “ANTIVIRAL COMPOUNDS AND METHODS OF MAKING AND USING THE SAME” (Gilead Sciences, Inc., priority 2022, published 2023).
# Read-outs that look alike come from different tables or passages of the source.
# How the values were obtained:
# [1] = test system: Human Rhinovirus 16 (HRV16); test: H1-HeLa HRV-CTG 384-well assay, HRV16, Example X; type: cell-based; settings: Rhinovirus A, 96 h, read-out: EC50 H1-HeLa_HRV 16_HRV-CTG 384-well Assay (per Ex. X)
# Text: (§1) Example X: H1-HeLa HRV-CTG 384-Well Assay
# (§2) H1-Hela cell line (ATCC, Manassas, VA, Cat #CRL-1958) was maintained in Dulbecco's […] (DMEM) (Corning, New York, NY, Cat #15-018CM) supplemented with 10% fetal bovine serum (FBS) (Hyclone, Logan, UT, Cat #SH30071-03), and 1× Penicillin-Streptomycin-L-Glutamine (Corning, New York, NY, Cat #30-009-CI). Cells were passaged 2 times per week to maintain sub-confluent densities and were used for experiments at passage 5-30. The Human Rhinovirus 1B (HRV1B) (ATCC, Manassas, VA, Cat #VR-1645), Human Rhinovirus 14 (HRV14) (ATCC, Manassas, VA, Cat #VR-284), and Human Rhinovirus 16 (HRV16) (ATCC, Manassas, VA, Cat #BR-283) was obtained through ATCC. Viral infection was monitored by determining viability of H1-HeLa cells as described below.
# (§3) Test molecules are prepared in 100% DMSO in 384-well polypropylene plates (Greiner, Monroe, NC, Cat #784201) with 8 compounds per plate in grouped replicates of 4 at 10 serially diluted concentrations (1:3). The serially diluted compounds were transferred to low dead volume Echo plates (Labcyte, Sunnyvale, CA, Cat #LP-0200).
# (§4) The test compounds were spotted to 384-well assay plates (Greiner, Monroe, NC, Cat #781091) at 200 nL per well using an Echo acoustic dispenser (Labcyte, Sunnyvale, CA). H1-HeLa cells were harvested and suspended in DMEM (supplemented with 2% FBS and 1× Penicillin-Streptomycin-L-Glutamine) and seeded to the pre-spotted assay plates at 5,000 cells per well in 30 μL. HRV1B, HRV14, and HRV16 was diluted in DMEM (supplemented with 2% FBS and 1× Penicillin-Streptomycin-L-Glutamine) at 97.1 million Infectious Units (IU) per mL, 151 million IU per mL and 221 million IU per mL respectively. 10 μL of virus per well was added to the assay plates containing cells and compounds, for an MOI of 0.5, 1.0, and 0.25 respectively. The assay plates were incubated for 4 days at 37° C. and 5% CO2. At the end of incubation, Celltiter-Glo (Promega, Madison, WI, Cat #G7573) was prepared. The assay plates and Celltiter-Glo reagent were equilibrated to room temperature for at least 15 minutes. 40 μL per well of Celltiter-Glo reagent was added and the plates were incubated at room temperature for 15 minutes before reading the luminescence signal on an EnVision multimode plate reader (Perkin Elmer, Waltham, MA). Rupintrivir was used as positive control and DMSO was used as negative control. Values were normalized to the positive and negative controls (as 0% and 100% replication, respectively) and data was fitted using non-linear regression analysis by Gilead's dose response tool. The EC50 value for each compound was defined as the concentration reducing viral replication by 50%.
# [2] = GI S9 stability, rat, Example Y; type: in vitro ADME; settings: pooled intestinal S9 fractions; rat intestinal S9, 1.0 mg/mL protein, 2 μM compound, pH 7.4; read-out: GIS9 Rat T½ (per Ex. Y)
# Experimental: (§5) Example Y: GI S9 Stability Data
# (§6) Stock solutions of test compounds in dimethyl sulfoxide (DMSO) having a final concentration of 10 mM were prepared and used in all experiments. Sekisui XenoTech (Kansas City, KS) provided pooled intestinal S9 fractions. All other chemicals were purchased from Sigma-Aldrich (St. Louis, MO) or VWR (West Chester, PA). Internal Standard/Quench (IS/Q) used to stop reactions was 100 nM labetalol in (by volume) methanol (10%) and acetonitrile (90%).
# (§7) Stability in Intestinal S9 Fractions: Duplicate aliquots of test compound or positive control substrate were added to S9 stock diluted with phosphate buffered saline (137 mM NaCl, 2.7 mM KCl, 10 mM phosphate buffer), pH 7.4, to obtain a protein concentration of 1.0 mg/mL. The metabolic reactions were initiated by the addition of the substrates to the S9 reaction mixture to a final concentration of 2 μM. At 0, 10, 20, 30, 60 and 120 min, 25 μL aliquots of the reaction mixture were transferred to plates containing 225 μl of IS/Q solution. After quenching, the plates were centrifuged at 3000×g for 30 minutes. 150 μL aliquots of each supernatant were dried down then reconstituted with 300 μL water. Aliquots (10 μL) of the prepared samples were analyzed on a Thermo Q-Exactive mass spectrometer as described below.
# (§8) Liquid Chromatography—Mass Spectrometry: Quantification of test compounds and control substrate was performed by analyte/internal standard peak area ratio (PAR) values measured on a Thermo Q-Exactive mass spectrometer coupled to a Dionex UltiMate 3000 HPLC with a Leap Technologies HTC PAL autosampler. The column used for analysis was a Waters Acquity BEH C18 (1.7 μm particle size, 2.1×50 mm). Mobile phase A consisted of 0.1% (v/v) formic acid in water. Mobile phase B consisted of 0.1% (v/v) formic acid in acetonitrile. Elution of analytes was achieved by a series of linear gradients varying the proportions of A and B. The mass spectrometer was calibrated on a weekly basis and mass tolerance of 5 ppm was used.
# (§9) Metabolic stabilities in S9 fractions were determined by measuring the rates of disappearance of test compound and positive control substrate.
# (§10) Data (% of substrate remaining) were plotted on a semi-log scale and fitted using an exponential decline model:
# (§11) Ct=C0×e^−ln2/T1/2×t • Where Ct—% of substrate remaining at time=t; C0—% of substrate remaining at time=0; t—time; T1/2—half-life. • The Half-life (T1/2) is determined by the following equation: […]
# (§12) Assuming a first-order reaction, the slope (k) is extrapolated from the aforementioned plotted data.
# [3] = GI S9 stability, human, Example Y; type: in vitro ADME; settings: pooled intestinal S9 fractions; human intestinal S9, 1.0 mg/mL protein, 2 μM compound, pH 7.4; read-out: GIS9 Human T½ (per Ex. Y)
# Experimental: as §5, §6, §7, §8, §9, §10, §11, §12
# [4] = test system: Human Rhinovirus 1B (HRV1B); test: H1-HeLa HRV-CTG 384-well assay, HRV1B, Example X; type: cell-based; settings: Rhinovirus A, 96 h, read-out: EC50 H1-HeLa_HRV 1B_HRV-CTG 384-well Assay (per Ex. X)
# Text: as §1, §2, §3, §4
# [5] = test system: Human Rhinovirus 14 (HRV14); test: H1-HeLa HRV-CTG 384-well assay, HRV14, Example X; type: cell-based; settings: Rhinovirus B, 96 h, read-out: EC50 H1-HeLa_HRV 14_HRV-CTG 384-well Assay (per Ex. X)
# Text: as §1, §2, §3, §4
# [6] = H1-HeLa cells, HRV16 MOI 0.25, 4 days, Celltiter-Glo
# [7] = H1-HeLa cells, HRV1B MOI 0.5, 4 days, Celltiter-Glo
# [8] = H1-HeLa cells, HRV14 MOI 1.0, 4 days, Celltiter-Glo
SMILES,"EC50 ([1]; HRV16, H1-HeLa) [µM]",half-life at 2 μM [2] [min],half-life at 2 μM [3] [min],"EC50 ([4]; HRV1B, H1-HeLa) [µM]","EC50 ([5]; HRV14, H1-HeLa) [µM]","EC50 [1, 6] [µM]","EC50 [4, 7] [µM]","EC50 [5, 8] [µM]"
"CC(C)(C)OC(=O)OC[C@@]1(C#N)O[C@@H](c2ccc3c(N)ncnn23)[C@H](O)[C@@H]1O [Compound 13, ((2R,3S,4R,5S)-5-(4-aminopyrrolo[2,1-f][1,2,4]triazin-7-yl)-2-cyano-3,4-dihydroxytetrahydrofuran-2-yl)methyl tert-butyl carbonate]",7.67,74,97,3.19,4.67,,,
"CCC(CC)OC(=O)OC[C@@]1(C#N)O[C@@H](c2ccc3c(N)ncnn23)[C@H](O)[C@@H]1O [Compound 14, ((2R,3S,4R,5S)-5-(4-aminopyrrolo[2,1-f][1,2,4]triazin-7-yl)-2-cyano-3,4-dihydroxytetrahydrofuran-2-yl)methyl pentan-3-yl carbonate]",,16,104,,,50,22.9,44.5
"CC(C)COC(=O)OC[C@@]1(C#N)O[C@@H](c2ccc3c(N)ncnn23)[C@@H]2OC(=O)O[C@@H]21 [Compound 15, ((3aS,4R,6S,6aS)-6-(4-aminopyrrolo[2,1-f][1,2,4]triazin-7-yl)-4-cyano-2-oxotetrahydrofuro[3,4-d][1,3]dioxol-4-yl)methyl isobutyl carbonate]",,2,1,,,9.15,7.05,7.55
"CC(C)COC(=O)Nc1ncnn2c([C@@H]3O[C@](C#N)(CO)[C@@H](O)[C@H]3O)ccc12 [Compound 16, Isobutyl (7-((2S,3R,4S,5R)-5-cyano-3,4-dihydroxy-5-(hydroxymethyl)tetrahydrofuran-2-yl)pyrrolo[2,1-f][1,2,4]triazin-4-yl)carbamate]",,789,789,,,50,50,50
"N#C[C@]1(COC(=O)OC2CCC2)O[C@@H](c2ccc3c(N)ncnn23)[C@H](O)[C@@H]1O [Compound 17, ((2R,3S,4R,5S)-5-(4-aminopyrrolo[2,1-f][1,2,4]triazin-7-yl)-2-cyano-3,4-dihydroxytetrahydrofuran-2-yl)methyl cyclobutyl carbonate]",,7,29,,,15.1,6.08,18.4
"CCCCCCOC(=O)OC[C@@]1(C#N)O[C@@H](c2ccc3c(N)ncnn23)[C@H](O)[C@@H]1O [Compound 19, ((2R,3S,4R,5S)-5-(4-aminopyrrolo[2,1-f][1,2,4]triazin-7-yl)-2-cyano-3,4-dihydroxytetrahydrofuran-2-yl)methyl hexyl carbonate]",,2,11,,,8.39,3.57,7
"CCCCCOC(=O)OC[C@@]1(C#N)O[C@@H](c2ccc3c(N)ncnn23)[C@H](O)[C@@H]1O [Compound 20, ((2R,3S,4R,5S)-5-(4-aminopyrrolo[2,1-f][1,2,4]triazin-7-yl)-2-cyano-3,4-dihydroxytetrahydrofuran-2-yl)methyl pentyl carbonate]",,3,16,,,9.58,4.69,12.3
"N#C[C@]1(COC(=O)OC2CCCCC2)O[C@@H](c2ccc3c(N)ncnn23)[C@H](O)[C@@H]1O [Compound 21, ((2R,3S,4R,5S)-5-(4-aminopyrrolo[2,1-f][1,2,4]triazin-7-yl)-2-cyano-3,4-dihydroxytetrahydrofuran-2-yl)methyl cyclohexyl carbonate]",,8,44,,,26.7,7.87,23.5
"CCOC(=O)OC[C@@]1(C#N)O[C@@H](c2ccc3c(N)ncnn23)[C@H](O)[C@@H]1O [Compound 22, ((2R,3S,4R,5S)-5-(4-aminopyrrolo[2,1-f][1,2,4]triazin-7-yl)-2-cyano-3,4-dihydroxytetrahydrofuran-2-yl)methyl ethyl carbonate]",,14,55,,,26.3,9.8,19.9
"N#C[C@]1(COC(=O)OC2CC2)O[C@@H](c2ccc3c(N)ncnn23)[C@H](O)[C@@H]1O [Compound 23, ((2R,3S,4R,5S)-5-(4-aminopyrrolo[2,1-f][1,2,4]triazin-7-yl)-2-cyano-3,4-dihydroxytetrahydrofuran-2-yl)methyl cyclopropyl carbonate]",,9,19,,,9.64,5.32,11.4
"N#C[C@]1(COC(=O)O[C@@H]2CCOC2)O[C@@H](c2ccc3c(N)ncnn23)[C@H](O)[C@@H]1O [Compound 24, ((2R,3S,4R,5S)-5-(4-aminopyrrolo[2,1-f][1,2,4]triazin-7-yl)-2-cyano-3,4-dihydroxytetrahydrofuran-2-yl)methyl ((R)-tetrahydrofuran-3-yl) carbonate]",,47,178,,,14.1,6.75,10.2
